Read-outs that look alike come from different tables or passages of the source. *1 amine or outer side, *2 acyl side, *3 side chain or, on linkers, in order; H or OH if unused. Where a SMILES comes first, the peptide text is derived from it. Bridges are numbered along the chain shown (N, C = ends). [ ]: non-standard residue; d: D form. The star is where a group is joined. pTerphenylCO(4''-OnC5H11) = CCCCCOc1ccc(-c2ccc(-c3ccc(C(=O)*)cc3)cc2)cc1; Orn(4R-OH,5R-OH) = O=C([C@H](C[C@@H](O)[C@@H](O)N[*:3])N[*:1])[*:2]; hTyr(3S-OH,4S-OH) = N[C@H](C(=O)O)[C@H](O)[C@@H](O)c1ccc(O)cc1; Pro(3S-OH,4S-Me) = C[C@H]1CN[C@H](C(=O)O)[C@H]1O; Hyp = O=C(O)[C@@H]1C[C@@H](O)CN1
System: wild-type ZIKV (Ugandan MR766 strain) in Vero cells
Experiment: ZIKV cytopathic effect (CPE) inhibition qHTS assay, CellTiter-Glo readout
Type: cell-based, Zika virus
Settings: for Emax: read-out: Max response
[1] = Zika virus, Vero, read-out: Log AC50 (M) (converted)
[2] = Zika virus, Vero, from Hill fit of the response curve, 50% of maximum activity response, 194 cherry-picked compounds, protocol name not given, read-out: AC50
[3] = Zika virus, Vero, potency in log units (Molar) from Hill fit of the response curve, 194 cherry-picked compounds, protocol name not given, read-out: Log AC50 (converted)
[4] = curve class v2 (Inglese et al. 2006)
[5] = difference between neutral response and maximum compound response
[6] = Zika virus, Vero, read-out: Log AC50 (converted)

Compound	CC-v2 (curve class classification of the dose response curve)	Efficacy	AC50 (Zika virus, Vero)	AC50 [1]	further results
CC1=CC(=O)[C@@H](O)[C@]2(C)C3[C@@H](O)[C@@H]4OC(=O)[C@@H]([C@H]4C)[C@]3(C)C(=O)C[C@@H]12 (stereo partly drawn) [NCGC00384574-01]	-1.2	-58.007	1.61e-06 M	1.61e-06 M	–
C=C1CC2OC(=O)C(=C)C2C(OC(=O)/C(C)=C\C)CC2(C)OC1=CC2=O (stereo not drawn) [NCGC00384607-01]	-3	-115.469	4.53e-05 M	4.53e-05 M	–
COC1CCCC(C)OC(=O)Cc2cc(O)cc(O)c2C(=O)C1 (stereo not drawn) [NCGC00384664-01]	–	–	–	–	AC50 [2]: 4.53e-05 M; AC50 [3]: 4.53e-05 M; CC-v2 (curve class classification of the dose response curve) [4]: -3; Efficacy [5]: -54.826
C[C@@H]1O[C@@H](O[C@H]2[C@H](O[C@H]3CC[C@@]4(C)C(CC[C@]5(C)C4C=C[C@]46OC[C@@]7(CCC(C)(C)C[C@H]74)[C@@H](O[C@@H]4O[C@@H](C)[C@H](O)[C@@H](O)[C@H]4O)C[C@]65C)[C@]3(C)CO)O[C@H](CO)[C@@H](O)[C@@H]2O[C@@H]2O[C@H](CO)[C@@H](O)[C@H](O)[C@H]2O)[C@H](O)[C@H](O)[C@H]1O (stereo partly drawn) [NCGC00384707-01]	–	-27.107	6.18e-06 M	6.18e-06 M	–
CC1=CC(=O)[C@@H](O)[C@]2(C)C3[C@@H](O)[C@@H]4OC(=O)[C@@H]([C@H]4C)[C@]3(C)C(=O)[C@H](O)[C@@H]12 (stereo partly drawn) [NCGC00384766-01]	–	–	–	–	AC50 [2]: 9.04e-06 M; AC50 [3]: 9.04e-06 M; Efficacy [5]: -50.694
COc1ccc(CC2C(=O)NC(C)C(=O)N(C)C3Cc4ccc(cc4)Oc4cc(ccc4OC4OC(CO)C(O)C(O)C4O)CC(C(=O)NC(C)C(=O)NC(C)C(=O)N2C)N(C)C3=O)cc1 (stereo not drawn) [NCGC00384826-01]	–	–	–	–	AC50 [2]: 6.18e-06 M; AC50 [3]: 6.18e-06 M; CC-v2 (curve class classification of the dose response curve) [4]: -2.2; Efficacy [5]: -63.548
CC(/C=C/C=C(\C)C(=O)O[C@@H]1O[C@H](CO[C@@H]2O[C@H](CO)[C@@H](O)[C@H](O)[C@H]2O)[C@@H](O)[C@H](O)[C@H]1O)=C\C=C\C=C(C)\C=C\C=C(/C)C(=O)O[C@@H]1C[C@](O)(C(=O)O)C[C@@H](O)[C@H]1OC(=O)/C=C/c1ccc(O)c(O)c1 [NCGC00384868-01]	-3	-78.383	6.93e-06 M	6.93e-06 M	–
C[C@@H]1C[C@@H]([C@@H](O)C(C)(C)O)O[C@H]2C[C@@]3(C)C(=C12)C[C@H](O)[C@H]1[C@@]2(C)CCC(=O)C(C)(C)C2CC[C@@]13C (stereo partly drawn) [NCGC00384870-01]	-3	-67.591	1.59e-05 M	1.59e-05 M	–
C=C[C@H]1[C@H](O[C@@H]2O[C@H](CO)[C@@H](O)[C@H](O)[C@H]2O)OC=C(C(=O)OC)[C@H]1CCO [NCGC00384878-01]	-3	-80.569	2.02e-05 M	2.02e-05 M	–
CC(=O)OC[C@]12C[C@H](OC(=O)CC(C)C)C(C)=C[C@H]1O[C@@H]1[C@H](O)C[C@@]2(C)[C@]12CO2 [NCGC00385002-01]	–	-46.392	–	–	Log AC50 (M): -5.6492 M; Max Resp: -19.758; AC50 (read-out: AC50): 2.24e-06 M
CC(=O)O[C@H]1CC2C(COC(=O)CC(C)C)=CO[C@@H](OC(=O)CC(C)C)C2[C@]12CO2 (stereo partly drawn) [NCGC00385012-01]	-3	-34.82	3.17e-05 M	3.17e-05 M	–
C/C=C/c1ccc2oc(-c3ccc(O)c(OC)c3)c(C)c2c1 [NCGC00385078-01]	-3	-53.705	2.31e-05 M	2.31e-05 M	–
CC(=O)OC12C(O)C(C)C3(O)C4C=C(C)C(=O)C4CC(CO)=CC3C1C2(C)C (stereo not drawn) [NCGC00385123-01]	-3	-66.621	1.12e-05 M	1.12e-05 M	–
COC(=O)[C@@]1(C)C(=O)C=C[C@]2(C)c3c(O)cc(C(C)C)cc3[C@H](O)[C@@H](OC(C)=O)C12 (stereo partly drawn) [NCGC00385132-01]	-3	-68.661	1.42e-05 M	1.42e-05 M	–
CC1CCC2(C(=O)OC3OC(CO)C(O)C(O)C3O)CCC3(C)C(=CCC4C5(C)CCC(O)C(C)(CO)C5CCC43C)C2C1(C)O (stereo not drawn) [NCGC00385137-01]	-3	-66.194	6.11e-06 M	6.11e-06 M	–
CC(C)c1c(O)ccc2c1CC[C@H]1C(C)(C)CCC[C@]21C [NCGC00385162-01]	–	-41.688	5.8e-05 M	–	Curve class: -3; AC50 [6]: 5.8e-05 M; Emax (Zika virus, Vero): -36.8%
C=C(C(=O)O[C@H]1C/C(C)=C/CC/C(CO)=C/[C@H]2OC(=O)C(=C)[C@H]12)C(O)CO (stereo partly drawn) [NCGC00385206-01]	-3	-104.223	4.53e-05 M	4.53e-05 M	–

Compound	CC-v2 (curve class classification of the dose response curve)	Efficacy	AC50 (Zika virus, Vero)	AC50 [1]	further results
COc1ccc(CC2C(=O)NC(C)C(=O)N(C)C3Cc4ccc(cc4)Oc4cc(ccc4OC4OC(CO)C(O)C(O)C4O)CC(C(=O)NC(C)C(=O)NC(CCC(=O)O)C(=O)N2C)N(C)C3=O)cc1 (stereo not drawn) [NCGC00385295-01]	-2.2	-76.149	4.91e-06 M	4.91e-06 M	–
COc1cc2c(cc1O)C1(Cc3ccc4c(c3C1O)OCO4)[N+](C)([O-])CC2 (stereo not drawn) [NCGC00385471-01]	–	-50.391	6.4e-07 M	6.4e-07 M	–
C=C1C(=O)O[C@H]2CC(=C)[C@H]3CC[C@@](C)(O)[C@@H]3CC12 (stereo partly drawn) [NCGC00385616-01]	-3	-31.171	7.31e-05 M	7.31e-05 M	–
C[C@H]1CC[C@@]2(OC1)O[C@H]1CC3[C@@H]4CC[C@@H]5C[C@@H](O[C@@H]6O[C@H](CO)[C@@H](O[C@@H]7O[C@H](CO[C@@H]8OC[C@@H](O)[C@H](O)[C@H]8O)[C@@H](O[C@@H]8O[C@H](CO)[C@H](O)[C@H](O)[C@H]8O)[C@H](O)[C@H]7O)[C@H](O)[C@H]6O)CC[C@]5(C)C4CC[C@]3(C)[C@H]1[C@@H]2C (stereo partly drawn) [NCGC00385658-01]	–	–	–	–	AC50 [2]: 3.48e-06 M; AC50 [3]: 3.48e-06 M; Efficacy [5]: -25.029
C=C1C(=O)O[C@@H]2/C=C(\CO)CC/C=C(/C=O)C[C@H](O)[C@@H]12 [NCGC00385803-01]	–	-41.449	6.51e-05 M	–	Curve class: -3; AC50 [6]: 6.51e-05 M; Emax (Zika virus, Vero): -37.5%
C/C=C(/C)C(=O)OC1CC(C)(C)CC2C3=CCC4C5(C)CCC(O[C@@H]6O[C@H](C(=O)O)[C@@H](O)[C@H](O)[C@H]6O[C@@H]6O[C@H](CO)[C@H](O)[C@H](O[C@@H]7OC[C@H](O)[C@H](O)[C@H]7O[C@@H]7O[C@H](CO)[C@@H](O)[C@H](O)[C@H]7O)[C@H]6O)C(C)(C)C5CCC4(C)C3(C)C(O)C(O)C12CO (stereo partly drawn) [NCGC00386019-01]	–	-41.4	9.77e-06 M	9.77e-06 M	–
CC(C)=CCC/C(C)=C/COCC1OC(n2ccc(=O)[nH]c2=O)C(O)C1O (stereo not drawn) [NCGC00386057-01]	–	-46.076	4.53e-05 M	4.53e-05 M	–
CC1CCC2C(C)(C)C(O)CCC2(C)C12Cc1c(O)cc3c(c1O2)CNC3=N (stereo not drawn) [NCGC00386084-01]	–	-59.279	5.08e-07 M	5.08e-07 M	–
COc1cccc(C)c1C(=O)O[C@@H]1C[C@H](O[C@H]2[C@H](O)C[C@H](O[C@@H]3CCC[C@H]4[C@H]3C=C[C@@H]3CCCC/C=C/[C@H]5C=C(C(=O)O)[C@@H](C)C[C@@]56OC(=O)C(=C6O)OC(=O)[C@@]34C)O[C@@H]2C)O[C@H](C)[C@H]1O [NCGC00386109-01]	–	-37.18	1.23e-05 M	1.23e-05 M	–
C=C1/C(=C/C=C2\CCC[C@]3(C)[C@@H]([C@H](C)/C=C/[C@@H](C)C(C)C)CC[C@@H]23)C[C@@H](O)C[C@@H]1O [NCGC00386145-01]	-3	-42.433	6.51e-05 M	6.51e-05 M	–
C=CC(C)(O)CC[C@@H]1[C@@]2(C)CCCC(C)(C)C2CC[C@@]1(C)O (stereo partly drawn) [NCGC00386171-01]	–	-26.101	5.8e-05 M	5.8e-05 M	–
C=CC(=O)Nc1ccc2ncnc(Nc3cccc(Br)c3)c2c1 [NCGC00386260-02]	–	-35.975	7.31e-05 M	–	Curve class: -3; AC50 [6]: > 4.6e-05 M; Emax (Zika virus, Vero): -31.6%
Cc1cc(C)c(-c2csc(NC(=O)c3ccccc3)n2)c(C)c1 [NCGC00386342-01]	–	-75.252	2.31e-05 M	–	Curve class: -3; AC50 [6]: 2.31e-05 M; Emax (Zika virus, Vero): 8.19%
CCCCCOc1ccc(-c2ccc(-c3ccc(C(=O)N[C@H]4C[C@@H](O)[C@@H](O)NC(=O)[C@@H]5[C@@H](O)[C@@H](C)CN5C(=O)[C@H]([C@@H](C)O)NC(=O)[C@H]([C@H](O)[C@@H](O)c5ccc(O)cc5)NC(=O)[C@@H]5C[C@@H](O)CN5C(=O)[C@H]([C@@H](C)O)NC4=O)cc3)cc2)cc1 [NCGC00386349-01] ({pTerphenylCO(4''-OnC5H11)}-[Orn(4R-OH,5R-OH)]T[Hyp][hTyr(3S-OH,4S-OH)]T[Pro(3S-OH,4S-Me)]; lactam 1-C)	-2.2	-31.74	1.26e-05 M	1.26e-05 M	–
CN(CC[C@H](N)CC(=O)N[C@H]1C=C[C@@H](n2ccc(N)nc2=O)O[C@@H]1C(=O)O)C(=N)N [NCGC00386414-01]	-1.1	-84.972	2.66e-06 M	2.66e-06 M	–
CCOCCn1nc(CC)c2nc(N3CCC(C(=O)O)CC3)nc(Nc3cc(C)ccn3)c21 [NCGC00386619-01]	–	-25.995	4.11e-05 M	4.11e-05 M	–
CC(C)C[C@H](CO)Nc1nc(S[C@@H](C)c2ccccc2)nc2nc(N)sc12 [NCGC00386735-01]	–	-23.549	5.17e-05 M	5.17e-05 M	–

From article PMC8765781, “A platform of assays for the discovery of anti-Zika small-molecules with activity in a 3D-bioprinted outer-blood-retina model” (PLoS ONE, 2022)
